From patent US11478466B2, “Small molecule promoting osteoblast differentiation” (Cornell University, priority 2019, dated 2022)

Legend:
[1] = tested on: alkaline phosphatase (ALP); assay: Flow cytometric analysis of ALP-positive C2C12 cell population; assay type: cell-based, mouse; settings: C2C12, day 2; baseline approximately 4% in DMSO-treated cells
Procedure: C2C12 cells were treated for 2 days with 10 μM DIPQUO or structural analogs, 1 ng/ml rhBMP4, or with inhibitors as noted in figure legends, and then fixed briefly in 70% acetone/10% formaldehyde/20% citrate. Staining was achieved using the leukocyte alkaline phosphatase kit (Sigma 86R-1KT) according to the manufacturer's instructions. Expression of ALP was confirmed and quantified by flow cytometric analysis, using an Accuri C6 flow cytometer. Briefly, control- or DIPQUO-treated C2C12 cells were detached and harvested on day 2 using PBS-based enzyme-free cell detachment solution (ThermoFisher). 2×10^5 cells were incubated on ice for 30 minutes with 10 μl APC-conjugated ALPL antibody (R&D Systems), and washed in ice-cold PBS before analysis. Live cells were gated and analyzed in CFlow Plus software and then data was converted to FlowJo to achieve publication-level resolution. […] After an additional 3 days, cells were either fixed and stained for ALP expression or analyzed for ALP activity using the AttoPhos Substrate kit. Hemagglutinin and FLAG epitope-tagged MKK3 (pMT2-HA-MKK3) and MKK6 (pcDNA3-FLAG-MKK6) constructs were obtained from Addgene and transfected into C2C12 cells using Lipofectamine LTX with Plus Reagent (ThermoFisher) according to manufacturer's instructions and cell extracts analyzed for protein expression and activity as described below.

[2] = tested on: PI3K/Akt, ERK, TGF-β/SMAD2/3, BMP/SMAD1/5/9; assay: Western blotting of other signaling effectors in C2C12 cells; assay type: cell-based, mouse
Procedure: Whole cell extracts were collected from C2C12 or BRITER cells in complete lysis buffer (20 mM Tris, 150 mM NaCl, 50 mM NaF, 1% NP40 substitute, HALT protease inhibitor cocktail (ThermoScientific). Proteins were resolved by electrophoresis on pre-cast 10% NuPage Bis-Tris gels (Invitrogen) and transferred to PVDF membranes (Bio-Rad). Membranes were blocked in 5% BSA-TBS-0.5% Tween-20 for 15 minutes, then incubated at 4° overnight with primary antibodies. Antibodies used were: rabbit anti-phospho-p38 MAPK (cat. no. 9211), anti-p38 MAPK XP (8690), anti-phospho-SMAD1/5 (9516), anti-SMAD1 XP (6944), anti-phospho-SMAD2/3 (8828), anti-SMAD2/3 XP (8685), anti-phospho-JNK (4668), anti-SAPK/JNK (9252), anti-phospho-Akt XP (4060), pan anti-Akt (4691), anti-phospho ERK p42/p44 (4377), anti-ERK p42/p44 (9102), anti-phospho-MKK3/6 (12280), anti-MKK3 (8535), anti-phospho-TAK1 (4531), anti-TAK1 (5206), anti-HA (3274), and anti-FLAG (14793); all from Cell Signaling); and mouse anti-p38α (cat. no. 33-1300), anti-p38β (33-8700; both ThermoFisher) and anti-β-actin (Sigma A1978). Proteins were visualized with HRP-conjugated secondary antibodies (Bio-Rad) with WestPico (ThermoFisher) or Immobilon (Millipore) chemiluminescence reagents. Images were obtained and analyzed for relative densitometric relationships on a LI-COR C-DiGit scanner using Image Studio software.

AP-1 response element = AP-1 response element luciferase reporter assay; assay type: cell-based; settings: 293T HEK cells, 7 hours, various concentrations
Procedure: For AP-1 reporter assays, 293T HEK cells were seeded at 0.25×10^6 cells/well of a gelatin-coated 24-well plate one day before transfection. Plasmid transfections were performed using Lipofectamine LTX (Invitrogen) according to manufacturer's protocol. Briefly, 293T HEK cells were co-transfected with pGL4.44 AP1 [luc2P/AP1 RE/Hygro] reporter plasmid (Promega) and SV40Renilla plasmid as a transfection control. 24 hours after transfection, cells were incubated in serum free DMEM media for 24 hours. The following day, cells were treated with 10 ng/ml PMA (Phorbol 12-myristate 13-acetate; Tocris) or indicated concentration of DIPQUO in serum free DMEM for 7 hours prior to lysis with 1× Passive Lysis buffer (Promega). Luciferase expression was measured using Dual-Glo Luciferase Assay (Promega).

p38-β = assay: Isoform-specific immunoprecipitation, p38-β activity in C2C12 cells; assay type: cell-based, mouse; settings: C2C12, 10 μM DIPQUO
Text: (§1) There are four separate p38 isoforms: α, β, γ, and δ. The respective roles of the α and β isoforms in bone differentiation have been dissected to the extent that p38-β is known to be involved specifically in skeletogenesis (Greenblatt et al., 2010), while p38-α has roles that are both wide-ranging and highly specific, for instance in dentition (Greenblatt et al., 2015). Accordingly, we used small interfering RNA-mediated knockdown to probe the specificity of DIPQUO to block the activity of one or the other isoform (FIG. 6E). […] To confirm the biological significance of this observation, the α and β isoforms were immunoprecipitated from C2C12 cells and analyzed for relative activity levels.

p38-α = assay: Isoform-specific immunoprecipitation, p38-α activity in C2C12 cells; assay type: cell-based, mouse; settings: C2C12, 10 μM DIPQUO
Text: as §1

Cc1cc(C)c2[nH]c(=O)c(-c3[nH]cnc3-c3ccccc3)cc2c1 [RU-0226606, 6,8-dimethyl-3-(4-phenyl-1H-imidazol-5-yl)quinolin-2(1H)-one]
ALP-expressing fraction of the cell culture (flow cytometry) [1]: > 30%
other pathways (PI3K/Akt, ERK, TGF-β/SMAD2/3, BMP/SMAD1/5/9) [2]: no change observed
AP-1 response element luciferase reporter activation (AP-1 response element): Neither did DIPQUO stimulate activation
p38-β isoform activity after immunoprecipitation (p38-β): significantly activated
p38-α isoform activity after immunoprecipitation (p38-α): suppressed
